The text below walks through data of patent US20260258010A1, “THIOPHENE-2-CARBOXYLIC ACID DERIVATIVE, AND PREPARATION METHOD THEREFOR AND MEDICAL USE THEREOF” (CHINA PHARMACEUTICAL UNIVERSITY, priority 2023, published 2026).

The target in the test is T1, P2Y14 receptor (Homo sapiens, UniProt Q15391).
T1 construct: expressed in transfected cells; host or cells: HEK293
T1 sequence (Q15391 1-338): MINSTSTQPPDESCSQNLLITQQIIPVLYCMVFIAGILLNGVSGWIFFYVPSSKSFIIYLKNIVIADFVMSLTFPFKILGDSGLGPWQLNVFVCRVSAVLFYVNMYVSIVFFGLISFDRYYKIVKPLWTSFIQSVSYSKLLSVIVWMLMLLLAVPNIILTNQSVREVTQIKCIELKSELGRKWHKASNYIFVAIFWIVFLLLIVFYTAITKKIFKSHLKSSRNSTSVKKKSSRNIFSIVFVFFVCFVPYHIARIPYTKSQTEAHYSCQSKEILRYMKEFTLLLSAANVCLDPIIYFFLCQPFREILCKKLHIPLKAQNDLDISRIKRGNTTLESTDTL
Description: cAMP inhibition assay in HEK293 cells stably transfected with the P2Y14 receptor (UDPG-stimulated, cAMP Glo). Format: cell-based. The method, then:
An HEK293 cell strain stably transfected with the P2Y14 receptor was cultured in a DMEM culture medium (containing […], 100 U/mL penicillin, and 100 μg/mL streptomycin). Before the experiment, the cells were seeded into a culture plate at a density of 1×10^5 cells/well, and a serum-free culture medium was used instead. The cells were cultured at 37° C. with […] and 5% CO2 humidity. IBMX was added to inhibit the activity of PDEs, thereby ensuring a relatively high level of cAMP. The AC agonist Forskolin (30 μM) was adopted to stimulate the production of cellular cAMP. Test compounds at different concentrations (0.01 nm, 0.1 nm, 1 nm, 10 nm, and 100 nm) were added in advance, and PPTN was used as a positive control. Subsequently, 1 μM P2Y14 receptor agonist UDPG was added, and after 4 h, the content of intracellular cAMP was measured using a cAMP Glo™ Assay kit (PROMEGA Co. Ltd., USA). The inhibition rate was calculated based on the cAMP content.

Setting [1] is: 100 nM compound, HEK293 stably transfected with P2Y14 receptor, 30 μM Forskolin, 1 μM UDPG, 4 h, inhibition rate from cAMP content, read-out: Inhibition @ 100 nM.

Read-outs that look alike come from different tables or passages of the source.

The term inhibition denotes the drop in the measured response relative to a control, in per cent.

For `Cc1ccc(Oc2sc(C(=O)O)cc2NC(=O)c2ccc(N(C)C)cc2)cn1` [Compound 18-4], the inhibition at 0.1 µM under setting [1] is 46.8%.

In the case of `Cc1ccc(C(=O)Nc2cc(C(=O)O)sc2Oc2ccc(C(=O)O)cc2)cc1` [Compound 3-12], the inhibition at 0.1 µM under setting [1] was found to be 44.1%.

Take `CCc1ccc(C(=O)Nc2cc(C(=O)O)sc2Oc2ccc(C)nc2)cc1` [Compound 15-3]: the inhibition at 0.1 µM under setting [1] was determined as 46.4%.

As to `Cc1ccc(C(=O)Nc2cc(C(=O)O)sc2Oc2ccncc2)cc1` [Compound 6-6], the inhibition at 0.1 µM under setting [1] is 43.5%.

Turning to `Cc1ccc(Oc2sc(C(=O)O)cc2NC(=O)c2ccc(C(C)(C)C)cc2)cn1` [Compound 15-6], the inhibition at 0.1 µM under setting [1] was 86.1%.

With `Cc1ccc(C(=O)Nc2cc(C(=O)O)sc2Oc2ccc(C(=O)NCC3CS(=O)(=O)C3)cc2)cc1` [Compound 3-24], the inhibition at 0.1 µM under setting [1] was found to be 75.6%.

`Cc1ccc(Oc2sc(C(=O)O)cc2NC(=O)c2ccc(Cl)cc2)cn1` [Compound 15-2]: under setting [1], the inhibition at 0.1 µM worked out at 75.4%.

As to `Cc1ccc(Oc2sc(C(=O)O)cc2NC(=O)c2ccccc2)cn1` [Compound 14, 5-((6-methylpyridin-3-yl)oxy)-4-(benzamido)thiophene-2-carboxylic acid], the inhibition at 0.1 µM under setting [1] came out at 86.9%.

On to `Cc1ccc(C(=O)Nc2cc(C(=O)O)sc2Oc2ccc(S(C)(=O)=O)cc2)cc1` [Compound 3-14], for which the inhibition at 0.1 µM under setting [1] stood at 62.8%.

Take `Cc1ccc(Oc2sc(C(=O)O)cc2NC(=O)c2ccc(C(F)(F)F)cc2)cn1` [Compound 15-9]: the inhibition at 0.1 µM under setting [1] amounted to 82.1%.

As to `CCc1ccc(Nc2sc(C(=O)O)cc2NC(=O)c2ccc(C)cc2)cc1` [Compound 9-3], under setting [1], the inhibition at 0.1 µM came out at 71.5%.

Take `Cc1ccc(C(=O)Nc2cc(C(=O)O)sc2Oc2ccc(Cl)cc2)cc1` [Compound 3-4]: the inhibition at 0.1 µM under setting [1] turned out to be 30.9%.

Take `CCCc1ccc(Oc2sc(C(=O)O)cc2NC(=O)c2ccc(C)cc2)cc1` [Compound 3-20]: the inhibition at 0.1 µM under setting [1] is 66.3%.

`Cc1ccc(C(=O)Nc2cc(C(=O)O)sc2Oc2ccc(C(F)(F)F)cc2)cc1` [Compound 3-7]: the inhibition at 0.1 µM under setting [1] is 62.6%.

Regarding `Cc1ccc(C(=O)Nc2cc(C(=O)O)sc2Oc2ccccc2)cc1` [Compound 3-1], the inhibition at 0.1 µM under setting [1] came to 44.1%.

With `COc1ccc(Oc2sc(C(=O)O)cc2NC(=O)c2ccc(C)cc2)cc1` [Compound 3-18], the inhibition at 0.1 µM under setting [1] was 69.8%.

Take `Cc1ccc(Oc2sc(C(=O)O)cc2NC(=O)c2ccc(C(=O)O)cc2)cn1` [Compound 15-11]: the inhibition at 0.1 µM under setting [1] was 79.3%.

As to `Cc1ccc(Oc2sc(C(=O)O)cc2NC(=O)c2ccc(C(C)C)cc2)cn1` [Compound 15-5], the inhibition at 0.1 µM under setting [1] is 78.7%.

`Cc1ccc(C(=O)Nc2cc(C(=O)O)sc2Oc2cccc(C)c2)cc1` [Compound 3-16]: the inhibition at 0.1 µM under setting [1] came to 55.8%.

Regarding `Cc1ccc(C(=O)Nc2cc(C(=O)O)sc2Oc2cccc(C(F)(F)F)c2)cc1` [Compound 3-8], the inhibition at 0.1 µM under setting [1] turned out to be 52.8%.

As to `Cc1ccc(C(=O)Nc2cc(C(=O)O)sc2Oc2ccc(C)nc2)nc1` [Compound 18-1], under setting [1], the inhibition at 0.1 µM turned out to be 45.1%.

For `CC(=O)Nc1ccc(Oc2sc(C(=O)O)cc2NC(=O)c2ccc(C)cc2)cc1` [Compound 3-23], under setting [1], the inhibition at 0.1 µM is 81.1%.

With `CCc1ccc(Oc2sc(C(=O)O)cc2NC(=O)c2ccc(C)cc2)cc1` [Compound 3-19], the inhibition at 0.1 µM under setting [1] was found to be 67.4%.

Regarding `Cc1ccc(Oc2sc(C(=O)O)cc2NC(=O)c2ccc(C)cc2)cc1` [Compound 3-15], under setting [1], the inhibition at 0.1 µM came out at 88.4%.

Regarding `Cc1ccc(C(=O)Nc2cc(C(=O)O)sc2Nc2ccc(C(C)C)cc2)cc1` [Compound 9-4], the inhibition at 0.1 µM under setting [1] was 59.8%.

Consider `Cc1ccc(C(=O)Nc2cc(C(=O)O)sc2Sc2ccccc2)cc1` [Compound 12-1], for which the inhibition at 0.1 µM under setting [1] amounted to 57.5%.

Take `C#Cc1ccc(C(=O)Nc2cc(C(=O)O)sc2Oc2ccc(C)nc2)cc1` [Compound 15-7]: under setting [1], the inhibition at 0.1 µM worked out at 94.6%.

Regarding `Cc1ccc(C(=O)Nc2cc(C(=O)O)sc2Oc2cccnc2)cc1` [Compound 6-1], the inhibition at 0.1 µM under setting [1] turned out to be 62%.

For `Cc1ccc(C(=O)Nc2cc(C(=O)O)sc2Oc2cccc(Cl)c2)cc1` [Compound 3-5], the inhibition at 0.1 µM under setting [1] was determined as 36.2%.

`Cc1ccc(C(=O)Nc2cc(C(=O)O)sc2Sc2ccc(F)cc2)cc1` [Compound 12-2]: the inhibition at 0.1 µM under setting [1] is 61.4%.

In the case of `Cc1ccc(Oc2sc(C(=O)O)cc2NC(=O)c2cnn(C)c2)cn1` [Compound 18-5], the inhibition at 0.1 µM under setting [1] is 45.8%.

With `Cc1ccc(C(=O)Nc2cc(C(=O)O)sc2Sc2ccc(C(F)(F)F)cc2)cc1` [Compound 12-4], the inhibition at 0.1 µM under setting [1] was found to be 82.5%.

As for `CCc1ccc(Sc2sc(C(=O)O)cc2NC(=O)c2ccc(C)cc2)cc1` [Compound 12-3], under setting [1], the inhibition at 0.1 µM was found to be 67.5%.

On to `Cc1ccc(C(=O)Nc2cc(C(=O)O)sc2Oc2ccccc2C)cc1` [Compound 3-17], for which the inhibition at 0.1 µM under setting [1] came to 45.8%.

Consider `Cc1ccc(C(=O)Nc2cc(C(=O)O)sc2Oc2cccc(F)c2)cc1` [Compound 3-2], for which the inhibition at 0.1 µM under setting [1] was found to be 69.6%.

For `Cc1ccc(C(=O)Nc2cc(C(=O)O)sc2Oc2ccc(C(=O)NCCC3CCOCC3)cc2)cc1` [Compound 3-25], the inhibition at 0.1 µM under setting [1] was found to be 49.5%.

As for `Cc1ccc(C(=O)Nc2cc(C(=O)O)sc2Nc2ccccc2)cc1` [Compound 9-1], under setting [1], the inhibition at 0.1 µM was determined as 82.3%.

In the case of `Cc1ccc(Oc2sc(C(=O)O)cc2NC(=O)c2cnc(C)cn2)cn1` [Compound 18-2], under setting [1], the inhibition at 0.1 µM was determined as 48.2%.

For the compound `Cc1ccc(C(=O)Nc2cc(C(=O)O)sc2Oc2ccc(C)cn2)cc1` [Compound 6-4], for the setting “HEK293, read-out: Inhibition @ 100 nM”, the inhibition at 0.1 µM came out at 81.3%.

Turning to `Cc1ccc(C(=O)Nc2cc(C(=O)O)sc2Nc2ccc(F)cc2)cc1` [Compound 9-2], the inhibition at 0.1 µM under setting [1] came to 55.7%.

In the case of `Cc1ccc(Oc2sc(C(=O)O)cc2NC(=O)c2ccc(C)nc2)cn1` [Compound 17, 4-(6-methylnicotinamido)-5-((6-methylpyridin-3-yl)oxy)thiophene-2-carboxylic acid], the inhibition at 0.1 µM under setting [1] is 65.1%.

Consider `Cc1ccc(C(=O)Nc2cc(C(=O)O)sc2Oc2ccsn2)cc1` [Compound 6-7], for which the inhibition at 0.1 µM under setting [1] was determined as 60.3%.

Consider `Cc1ccc(C(=O)Nc2cc(C(=O)O)sc2Oc2ccc(F)cn2)cc1` [Compound 6-5], for which the inhibition at 0.1 µM under setting [1] turned out to be 75.5%.

Regarding `Cc1ccc(C(=O)Nc2cc(C(=O)O)sc2Oc2ccc(C#N)cc2)cc1` [Compound 3-13], under setting [1], the inhibition at 0.1 µM was determined as 46.2%.

As for `Cc1ccc(C(=O)Nc2cc(C(=O)O)sc2Oc2ccc(F)nc2)cc1` [Compound 6-2], the inhibition at 0.1 µM under setting [1] worked out at 88.4%.

Consider `Cc1ccc(C(=O)Nc2cc(C(=O)O)sc2Oc2ccccc2C(F)(F)F)cc1` [Compound 3-9], for which, under setting [1], the inhibition at 0.1 µM was determined as 57.1%.

For `Cc1ccc(C(=O)Nc2cc(C(=O)O)sc2Oc2ccc(C(C)C)cc2)cc1` [Compound 3-21], the inhibition at 0.1 µM under setting [1] came to 54.3%.

As to `Cc1ccc(Nc2sc(C(=O)O)cc2NC(=O)c2ccc(C)cc2)cc1` [Compound 8, 4-(4-methylbenzamido)-5-(p-tolylamino)thiophene-2-carboxylic acid], the inhibition at 0.1 µM under setting [1] was determined as 75.6%.

For the compound `CC(=O)c1ccc(Oc2sc(C(=O)O)cc2NC(=O)c2ccc(C)cc2)cc1` [Compound 3-11], under setting [1], the inhibition at 0.1 µM turned out to be 34.5%.

On to `CCCc1ccc(C(=O)Nc2cc(C(=O)O)sc2Oc2ccc(C)nc2)cc1` [Compound 15-4], for which the inhibition at 0.1 µM under setting [1] is 85.6%.

As to `COc1ccc(C(=O)Nc2cc(C(=O)O)sc2Oc2ccc(C)nc2)cc1` [Compound 15-10], the inhibition at 0.1 µM under setting [1] amounted to 91.3%.

On to `Cc1ccc(C(=O)Nc2cc(C(=O)O)sc2Oc2ccccn2)cc1` [Compound 6-3], for which the inhibition at 0.1 µM under setting [1] was found to be 74.9%.

Regarding `Cc1ccc(Oc2sc(C(=O)O)cc2NC(=O)c2cnc(C)nc2)cn1` [Compound 18-3], the inhibition at 0.1 µM under setting [1] turned out to be 56.2%.

Consider `Cc1ccc(C(=O)Nc2cc(C(=O)O)sc2Oc2ccccc2F)cc1` [Compound 3-3], for which the inhibition at 0.1 µM under setting [1] stood at 66%.

As for `Cc1ccc(Sc2sc(C(=O)O)cc2NC(=O)c2ccc(C)cc2)cc1` [Compound 11, 4-(4-methylbenzamido)-5-(p-tolylthio)thiophene-2-carboxylic acid], under setting [1], the inhibition at 0.1 µM turned out to be 75.6%.

Turning to `Cc1ccc(C(=O)Nc2cc(C(=O)O)sc2Oc2ccccc2Cl)cc1` [Compound 3-6], under setting [1], the inhibition at 0.1 µM was 40.4%.

Turning to `Cc1ccc(C(=O)Nc2cc(C(=O)O)sc2Oc2ccc(C(C)(C)C)cc2)cc1` [Compound 3-22], the inhibition at 0.1 µM under setting [1] came to 34.6%.

Take `Cc1ccc(Oc2sc(C(=O)O)cc2NC(=O)c2ccc(F)cc2)cn1` [Compound 15-1]: the inhibition at 0.1 µM under setting [1] was 75.7%.

In the case of `Cc1ccc(C(=O)Nc2cc(C(=O)O)sc2Oc2ccc(OC(F)(F)F)cc2)cc1` [Compound 3-10], the inhibition at 0.1 µM under setting [1] was 32.7%.

For `Cc1ccc(C(=O)Nc2cc(C(=O)O)sc2Oc2ccc(F)cc2)cc1` [Compound 2, 5-(4-fluorophenoxy)-4-(4-methylbenzamido)thiophene-2-carboxylic acid], the inhibition at 0.1 µM under setting [1] amounted to 70.4%.
